Values joined by “and” are separate entries in the source; they are usually repeats but may differ in a detail not shown here. Equal entries are not always repeated. Where two headings read alike, the source gives them in different places.
How the values were obtained:
[1] = system: Neuroscreen-1 (NS1) cells
Experimental: FIG. 12 depicts live-cell imaging of NS1 cells. […] Cells were irradiated with the 633 nm HeNe laser set at 3% power with a pinhole size of 1 airy unit. The emission was collected between 645 and 800 nm. Scale bar represents 20 μm. Pseudo-coloring represents intensity distribution from highest intensity indicated by white to the lowest intensity designated by black.
FIG. 13 depicts quantification of observed fluorescence intensity by confocal imaging in NS1 cells after incubation with 1 mM, 2.5 mM or 5 mM FA for 1 (light grey bars), 2 (dark grey bars) and 3 h (black bars). A Ham's F-12K vehicle was added to control cells which was normalized to 1 (white bars). […] For each condition, a minimum of 5 images were averaged (n>5). Errors represent standard deviation.
FIG. 20 depicts quantification of data obtained from confocal microscopy images acquired by irradiation of NS1 cells treated with a vehicle control, 0.25 mM and 0.5 mM FA at 37° C. for 3 hrs with the 633 nm HeNe laser. […] For each condition, a minimum of 5 images were averaged (n>5). Errors represent standard deviation.
HEK293TN cells were obtained from Prof. Paul Hergenrother (UIUC, Chemistry) and cultured in phenol-red free Dulbecco's modified eagle medium (DMEM, Corning) supplemented with 10% fetal bovine serum (FBS, Sigma Aldrich), and 1% penicillin/streptomycin (Corning). Neuroscreen-1 cells were obtained from Prof. Kai Zhang (UIUC, Biochemistry) and cultured in Ham's F-12K medium (Sigma Aldrich) supplemented with 15% horse serum (Hyclone), 2.5% fetal bovine serum (FBS, Sigma Aldrich), and 1% penicillin/streptomycin (Corning). Cells were incubated at 37° C. and 5% CO2. One day before imaging, cells were passed and plated on 8-well chambered coverglasses (Lab-Tek) at a density of 40,000 cells per mL (or 20,000 cells per well). Cells would reach 70-80% confluency before imaging. […] Samples of HEK293TN and NS1 cells for flow cytometry were prepared by passaging and seeding each well of a 6-well cluster culture dish (Cyto-One) with 300,000 cells one day before experiments. […] Stained cells were aspirated and serum-free DMEM added. Subsequently, a 10× concentrated FA solution was added to give a final concentration of 1.0 mM. 2.5 mM and 5 mM. After incubation cells with FA, the media was removed and replaced with serum-free DMEM. Finally, cells were trypsinized, pelleted via centrifugation, resuspended in phosphate-buffered saline (PBS) for flow cytometric analysis.
Prior to imaging, cells were allowed to recover in FA-free buffer for 30 min. […] Because FA is a powerful fixative, cell viability assays were performed to determine the cytotoxicity of FA under experimental conditions. A dye exclusion protocol was employed, utilizing trypan blue to selectively stain and distinguish dead cells from those that were viable. […] To further verify that the cell populations under investigation were indeed alive, DAPI, a cell permeable nuclear and chromosome counterstain, was employed to identify intact nuclei (FIG. 16).
(§1) For example, semicarbazide-sensitive amine oxidase (SSAO) is primarily localized to the plasma membrane (Andres et al., J. Histochem. Cytochem. 2001, 49:209). Thus, both HEK293TN and NS1 cells were costained with ER-Tracker Green, LysoTracker Green DND-26, and MitoTracker Green FM, fluorescent indicators that are known to selectively stain the endoplasmic reticulum, lysosome, and mitochondria, respectively in almost all cell types (FIG. 17A and FIG. 17B).

[2] = for fold increase in fluorescence intensity: 3 h
Experimental: All experiments were performed at 37° C. for 3 h. Time points on graphs a-b are recorded every 15 min. The time points for graphs c-d represent every 30 min.
All buffers used for pH titrations were prepared in deionized water and brought to the appropriate pH with aqueous HCl or NaOH. The buffers used were 50 mM glycine (pH range 2.00-3.50), 50 mM NaOAc (pH range 4.00-5.60), 50 mM MES (pH range 5.60-6.80), 50 mM HEPES (pH range 6.80-8.20), 50 mM Tris (pH range 8.20-9.50) and 50 mM glycine (pH range 9.50-10.40). A 10 mM stock solution of formaldehyde for in vitro titration experiments was prepared by heating a suspension of paraformaldehyde (>88% w/w, 17.6 mg, 0.50 mmol, TCI, lot # NXR2B) in phosphate buffered saline (PBS) buffered to pH 7.4 (50 mL) at 88° C. for 1 hr. The solution was cooled to room temperature and filtered through a 0.22 μm syringe filter (Millex).
Nuclear magnetic resonance (NMR) spectra were recorded on Varian 400 or 500 MHz spectrometers at 25° C. Chemical shifts are reported in ppm (δ) and are referenced to residual protic peaks. The following abbreviations are used to describe coupling constants: singlet (s), doublet (d), triplet (t), quartet (q), doublet doublet (dd), doublet triplet (dt), doublet quartet (dq), doublet doublet triplet (ddt), multiplet (m), and broad singlet (bs). IR spectra were recorded with a PerkinElmer Spectrum Two infrared (IR) spectrometer. High-resolution mass spectra were acquired with a Waters Q-TOF Ultima ESI mass spectrometer and a Waters Synapt G2-Si ESI/LC-MS mass spectrometer. UV-visible spectra were recorded on a Cary 60 spectrometer. Fluorescence spectra were acquired on a QuantaMaster-400 scanning spectrofluorometer with micro fluorescence quartz cuvettes (Science Outlet). Flow cytometry was performed on a BD Biosciences LSR II (San Jose, Calif., USA), and the data were analyzed as described using FACSDiva software.
(§2) In addition to its ability to crosslink biomolecules, FA is cytotoxic through the induction of oxidative stress (Zararsiz et al., Cell Biochem. Fund. 2007, 25:413).

HEK293TN and NS1 cells = details: 2 μM FP1, 1 μM tracker, both cell lines
Excerpt: Scale bar represents 20 μm.
as §1

[3] = Experimental: Time points on graph are 0, 30, 60, 90, 120, 150, and 180 min. […] Bars represent normalized fold-changes in response to treatment with each analyte listed at 1 mM for 3 hrs.
as §2

## C=CCC(NCc1ccc([N+](=O)[O-])cc1)c1cn(C)c2cc(C)c(C3=C4C=CC(=O)C=C4[Si](C)(C)c4c3cc3c5c4CCCN5CCC3)cc12 (stereo not drawn) [FP1]
[1]; NS1, 1 μM FP1, on-stage addition of 1 mM FA at 25° C., 2 hrs
  fold fluorescence increase (time-lapse imaging): 1.3 fold
[1]; NS1, 2 μM FP1, 1 mM FA, 1 hr
  fold increase in fluorescence intensity (confocal): 0 fold
[1]; NS1, 2 μM FP1, 1 mM FA, 2 hrs
  fold increase in fluorescence intensity (confocal): 1.1 fold
[1]; NS1, 2 μM FP1, 1 mM FA, 3 hrs
  fold increase in fluorescence intensity (confocal): 1.6 fold
[1]; NS1, 2 μM FP1, 2.5 mM FA, 1 hr
  fold increase in fluorescence intensity (confocal): 1.3 fold
[1]; NS1, 2 μM FP1, 2.5 mM FA, 2 hrs
  fold increase in fluorescence intensity (confocal): 1.5 fold
[1]; NS1, 2 μM FP1, 2.5 mM FA, 3 hrs
  fold increase in fluorescence intensity (confocal): 2.0 fold
[1]; NS1, 2 μM FP1, 5 mM FA, 1 hr
  fold increase in fluorescence intensity (confocal): 1.8 fold
[1]; NS1, 2 μM FP1, 5 mM FA, 2 hrs
  fold increase in fluorescence intensity (confocal): 2.0 fold
[1]; NS1, 0.25 mM FA, 37° C., 3 hrs
  fluorescence increase (confocal): 16%
[1]; NS1, 0.5 mM FA, 37° C., 3 hrs
  signal enhancement (confocal): 38%
[2]; 1 μM FP1, 0.1 mM FA, PBS pH 7.4, 37° C.
  fold increase in fluorescence intensity: 3.9 fold
[2]; 1 μM FP1, 0.25 mM FA, PBS pH 7.4, 37° C., 3 hrs
  fold fluorescence increase: ca. 7.0 fold
[2]; 1 μM FP1, 0.5 mM FA, PBS pH 7.4, 37° C.
  fold increase in fluorescence intensity: 8.5 fold
[2]; 1 μM FP1, 1 mM FA, PBS pH 7.4, 37° C.
  fold increase in fluorescence intensity: 12.8 fold and 11.6 fold
[2]; FA, after 3 hrs incubation at 37° C.
  lower limit of detection of FP1: 0.01 mM
HEK293TN and NS1 cells
  staining pattern (overlay with ER-Tracker Green): stained the cytoplasm, as well as the endoplasmic reticulum
[3]; 1 μM FP1, 1 mM acetaldehyde, 3 hrs
  fold fluorescence increase: 1.9 fold
[3]; 1 μM FP1, 1 mM of the various analytes
  cross-reactivity with aldehyde containing species: only minimal cross-reactivity
[3]; 1 mM hydrogen peroxide
  change in fluorescence: no significant change in fluorescence
[3]; cysteine, glutathione, hydrogen sulfide, 1 mM, 3 hrs
  chemical stability in the presence of intracellular reductants: no aberrant reactivity

From patent US10730892B2, “Homoallylamines as formaldehyde-responsive triggers” (The Regents of the University of California, priority 2015, dated 2020)
